Experimental findings from patent US4468387A, “Pesticidal N-sulfonyl N'-oxalate phosphorodiamido(di)thioates” (Rohm and Haas Company, priority 1982, dated 1984) are described below.

Common to all, as to assay type: in vivo
The test system of series [1] is Two-spotted spider mite (Tetranychus urticae). The experiment in a line: mite test, sprayed infested bean leaf discs (two-spotted spider mite). As to conditions: 600 ppm; leaf disc spray; percent kill after 24 hours. From the text:
(§1) A test solution containing 600 ppm of test compound can be made by dissolving the test compound in a solvent (acetone:methanol, 1:1), adding surfactant and then water to give an acetone:methanol:water system of 10:10:80. A 1:1 mixture of an alkylarylpolyetheralcohol (commercially available under the trademark Triton X-155) and a modified phthalic glycerol alkyl resin (commercially available under the trademark Triton B-1956) can be utilized at the equivalent of one ounce per 100 gallons of test solution and a surfactant.
For the mite test, infested bean (Phaseolus limeanus) leaf discs (1.25 inches in diameter) containing about 50 mites are placed in a Petri dish lid on a moistened piece of cotton. The leaves are then sprayed with the test solution using a rotating turntable. They are held for 24 hours and then the percent kill is determined.

Series [2] has as its system Southern armyworm (Spodoptera eridania). The experiment in a line: armyworm test, sprayed detached bean leaves, third instar southern armyworm larvae. As to conditions: 600 ppm, leaf spray, percent kill after 48 hours.
Text: as §1
For the armyworm test, detached bean leaves on pieces of moistened filter paper are sprayed as above for the mite test in similar dishes and allowed to dry. The dishes are infested with 10 third instar southern armyworm larvae. The dishes are covered. After holding for 48 hours, the percent kill is obtained.

Series [3] deals with Southern root-knot nematode (Meloidogyne incognita). The series can be described thus: nematode test, inoculated soil, cucumber root knots. As to conditions: about 30 ppm by volume in soil; knots on cucumber roots after about 23 days.
Text: as §1
For the nematode test, soil is homogeneously inoculated with a macerated blend of tomato roots heavily knotted with the root knot nematode. Ten milliliters of the test solution are added to 200 milliliters of the inoculated soil in a 16 oz. jar to give a concentration by volume of about 30 ppm. The jar is then shaken to insure thorough mixing, immediately uncapped, and allowed to air for 24 hours. The soil is then placed into a 3 inch plastic pot after which time 3 cucumber (Cucumis sativus) seeds are planted. About 23 days thereafter, the cucumber plants are removed from the soil and the root system examined for the presence of knots. A total of 15 knots or less is considered as a measure of control.

Structures are written as SMILES.

Turning to `CCC(C)SP(=O)(N(C)C(=O)C(=O)OC(C)C)N(C)S(C)(=O)=O` (stereo not drawn) [Example 1, N-Methanesulfonyl N,N'-dimethyl N'-[(1-methylethoxycarbonyl)carbonyl] S-(1-methylpropyl) phosphorodiamidothioate], the “Insecticidal Screening Results, % Control, Two-Spotted Mite” value in series [1] worked out at 100%. The “Insecticidal Screening Results, % Control, Southern Armyworm” value in series [2] was found to be 100%. The “Nema (control of root-knot nematode)” value in series [3] is recorded as “+ (A total of 15 knots or less is considered as a measure of control)”.
In the case of `CCC(C)SP(=O)(N(C)C(=O)C(=O)OC)N(C)S(C)(=O)=O` (stereo not drawn) [Example 2, N-Methanesulfonyl N'-[(methoxycarbonyl)carbonyl] N,N'-dimethyl S-(1-methylpropyl) phosphorodiamidothioate], the “Insecticidal Screening Results, % Control, Two-Spotted Mite” value in series [1] amounted to 100%. Besides, in series [2], the “Insecticidal Screening Results, % Control, Southern Armyworm” value amounted to 100%. In series [3], the “Nema (control of root-knot nematode)” value is on record as “+ (A total of 15 knots or less is considered as a measure of control)”.
As for `CCC(C)SP(=O)(N(C)C(=O)C(=O)OC(C)(C)C)N(C)S(C)(=O)=O` (stereo not drawn) [Example 3, N-Methanesulfonyl N,N'-dimethyl N'-[(1,1-dimethylethoxy)carbonylcarbonyl] S-(1-methylpropyl) phosphorodiamidothioate], the “Insecticidal Screening Results, % Control, Two-Spotted Mite” value in series [1] is listed as 100%. Besides, the “Insecticidal Screening Results, % Control, Southern Armyworm” value in series [2] was 100%. Besides, the “Nema (control of root-knot nematode)” value in series [3] is given as “+ (A total of 15 knots or less is considered as a measure of control)”.
Take `CCC(C)SP(=O)(N(C)C(=O)C(=O)OC1CCCCC1)N(C)S(C)(=O)=O` (stereo not drawn) [Example 4, N'-Cyclohexyloxycarbonylcarbonyl N-methanesulfonyl N,N'-dimethyl S-(1-methylpropyl) phosphorodiamidothioate]: in series [1], the “Insecticidal Screening Results, % Control, Two-Spotted Mite” value is given as 100%. In series [2], the “Insecticidal Screening Results, % Control, Southern Armyworm” value worked out at 30%. For the same molecule, in series [3], the “Nema (control of root-knot nematode)” value is “+ (A total of 15 knots or less is considered as a measure of control)”.
Consider `CCC(C)SP(=O)(N(C)C(=O)C(=O)Oc1ccccc1)N(C)S(C)(=O)=O` (stereo not drawn) [Example 6, N-Methanesulfonyl N,N'-dimethyl S-(1-methylpropyl) N'-phenoxycarbonylcarbonyl phosphorodiamidothioate], for which, in series [1], the “Insecticidal Screening Results, % Control, Two-Spotted Mite” value is reported as 100%. Further, the “Insecticidal Screening Results, % Control, Southern Armyworm” value in series [2] is 100%. The “Nema (control of root-knot nematode)” value in series [3] is on record as “+ (A total of 15 knots or less is considered as a measure of control)”.
For the molecule `CCCSC(=O)C(=O)N(C)P(=O)(SC(C)CC)N(C)S(C)(=O)=O` (stereo not drawn) [Example 7, N-Methanesulfonyl N,N'-dimethyl S-(1-methylpropyl) N'-(propylthio)carbonylcarbonyl phosphorodiamidothioate], in series [1], the “Insecticidal Screening Results, % Control, Two-Spotted Mite” value worked out at 100%. For the same molecule, the “Insecticidal Screening Results, % Control, Southern Armyworm” value in series [2] is reported as 100%. Further, the “Nema (control of root-knot nematode)” value in series [3] is listed as “+ (A total of 15 knots or less is considered as a measure of control)”.
For `CCC(C)SP(=O)(N(C)C(=O)C(=O)Oc1ccc(SC)cc1)N(C)S(C)(=O)=O` (stereo not drawn) [Example 8, N-Methanesulfonyl N,N'-dimethyl S-(1-methylpropyl N'-(4-methylthiophenoxy)carbonylcarbonyl phosphorodiamidothioate], the “Insecticidal Screening Results, % Control, Two-Spotted Mite” value in series [1] was found to be 100%. In addition, in series [2], the “Insecticidal Screening Results, % Control, Southern Armyworm” value stood at 100%. Also, in series [3], the “Nema (control of root-knot nematode)” value is on record as “+ (A total of 15 knots or less is considered as a measure of control)”.
For the molecule `CCC(C)OC(=O)C(=O)N(C)P(=O)(SC(C)CC)N(C)S(C)(=O)=O` (stereo not drawn) [Example 9, N-Methanesulfonyl N,N'-dimethyl S-(1-methylpropyl) N'-(1-methylpropyloxy)carbonylcarbonyl phosphorodiamidothioate], in series [1], the “Insecticidal Screening Results, % Control, Two-Spotted Mite” value is on record as 100%. In series [2], the “Insecticidal Screening Results, % Control, Southern Armyworm” value stood at 100%. In series [3], the “Nema (control of root-knot nematode)” value is “+ (A total of 15 knots or less is considered as a measure of control)”.
Consider `CCC(C)SP(=O)(N(C)C(=O)C(=O)OCCCl)N(C)S(C)(=O)=O` (stereo not drawn) [Example 10, N'-(2-Chloroethoxy)carbonylcarbonyl N-methanesulfonyl N,N'-dimethyl S-(1-methylpropyl) phosphorodiamidothioate], for which the “Insecticidal Screening Results, % Control, Two-Spotted Mite” value in series [1] stood at 100%. The “Insecticidal Screening Results, % Control, Southern Armyworm” value in series [2] was found to be 100%. Further, in series [3], the “Nema (control of root-knot nematode)” value is “+ (A total of 15 knots or less is considered as a measure of control)”.
Regarding `CCSCCOC(=O)C(=O)N(C)P(=O)(SC(C)CC)N(C)S(C)(=O)=O` (stereo not drawn) [Example 11, N'-(2-Ethylthioethoxy)carbonylcarbonyl N-methanesulfonyl N,N'-dimethyl S-(1-methylpropyl) phosphorodiamidothioate], the “Insecticidal Screening Results, % Control, Two-Spotted Mite” value in series [1] was 100%. Moreover, the “Insecticidal Screening Results, % Control, Southern Armyworm” value in series [2] is reported as 100%. Moreover, in series [3], the “Nema (control of root-knot nematode)” value is on record as “+ (A total of 15 knots or less is considered as a measure of control)”.
Regarding `CCC(C)SP(=O)(N(C)C(=O)C(=O)SC1CCCCC1)N(C)S(C)(=O)=O` (stereo not drawn) [Example 12, N'-(Cyclohexylthio)carbonylcarbonyl N-methansulfonyl N,N'-dimethyl S-(1-methylpropyl) phosphorodiamidothioate], the “Insecticidal Screening Results, % Control, Two-Spotted Mite” value in series [1] is on record as 100%. The “Insecticidal Screening Results, % Control, Southern Armyworm” value in series [2] is 100%. For the same molecule, in series [3], the “Nema (control of root-knot nematode)” value is reported as “+ (A total of 15 knots or less is considered as a measure of control)”.
For the molecule `CCC(C)SP(=O)(N(C)C(=O)C(=O)OCCOC)N(C)S(C)(=O)=O` (stereo not drawn) [Example 13, N-Methanesulfonyl N'-(2-methoxyethoxy)carbonylcarbonyl N,N'-dimethyl S-(1-methylpropyl) phosphorodiamidothioate], in series [1], the “Insecticidal Screening Results, % Control, Two-Spotted Mite” value came to 100%. Also, the “Insecticidal Screening Results, % Control, Southern Armyworm” value in series [2] is given as 100%. Further, the “Nema (control of root-knot nematode)” value in series [3] is given as “+ (A total of 15 knots or less is considered as a measure of control)”.
As for `CCC(C)SP(=O)(N(C)C(=O)C(=O)OCc1ccccc1)N(C)S(C)(=O)=O` (stereo not drawn) [Example 14, N'-Benzyloxycarbonylcarbonyl N-methanesulfonyl N,N'-dimethyl S-(1-methylpropyl) phosphorodiamidothioate], the “Insecticidal Screening Results, % Control, Two-Spotted Mite” value in series [1] amounted to 100%. Further, the “Insecticidal Screening Results, % Control, Southern Armyworm” value in series [2] was 100%. For the same molecule, the “Nema (control of root-knot nematode)” value in series [3] is “+ (A total of 15 knots or less is considered as a measure of control)”.
